# Assay results from paper PMC5559490, “Synthesis of Saccharumoside-B analogue with potential of antiproliferative and pro-apoptotic activities” (Scientific Reports, 2017).
# Assays:
# [1] = system: DU145 prostate cancer cells; assay: MTT antiproliferative assay, DU145; assay type: cell-based; conditions: Homo sapiens, DU-145; MTT assay; cancer cell line; mean of three independent experiments ± S.E.M.; read-out: IC50 DU145 Prostate
# [2] = system: HeLa cervical cancer cells; assay: MTT antiproliferative assay, HeLa; assay type: cell-based; conditions: Homo sapiens, MTT assay, cancer cell line, mean of three independent experiments ± S.E.M., read-out: IC50 HeLa Cervical
# [3] = system: HL-60 cells; assay: Rhodamine-123 mitochondrial membrane potential assay, HL-60; assay type: cell-based, human; conditions: compared to untreated cells
# [4] = system: HL-60 cells; assay: Cell cycle analysis (PI, flow cytometry), HL-60; assay type: cell-based, human; conditions: 24 h
# Description: Cancer cells (1 × 10^6/ml) were treated with different concentrations of compound (5 and10 µM) for 24 h, fixed in cold 70% alcohol in PBS, washed, digested with DNase free RNase (400 µg/mL) at 37 °C for 45 min and stained with propidium iodide (10 µg/ml). Cells were analyzed for PI-DNA fluorescence by flow cytometerically using FACS CALIBUR (Becton Dickinson, Franklin Lakes, New Jersey, USA)[28]–[30]. The fluorescence intensity of subG0/GI cell fraction represents the dead cell population.
# [5] = system: MCF-7 breast cancer cells; assay: Quantification of apoptosis (Annexin V-PI), MCF-7; assay type: cell-based, human; conditions: MCF-7 cells, 5 and 10 µM, 24 h
# Source text: (§1) Apoptotic population of cancer cells was quantified by Annexin V-propidium iodide (PI) staining technique (Abcam, Cambridge, MA, USA) using a flow cytometer as per published technique.
# [6] = system: HL-60 cancer cells; assay: Quantification of apoptosis (Annexin V-PI), HL-60; assay type: cell-based, human; conditions: HL-60 cells
# Source text: as §1
# [7] = system: Bcl-2; assay: Quantification of Bcl-2 (ELISA), HL-60; assay type: cell-based, human; conditions: HL-60 cells; compared to untreated cells
# Description: The intracellular content of Bcl-2 was quantified using the human Bcl-2 ELISA kit (Abcam, Cambridge, MA, USA). For the sample preparation, the cells were lysed with 1X lysis buffer. After 1 h of incubation at room temperature, the sample was spun at 1,000 g for 15 min and the supernatant was used for Bcl-2 measurement. Briefly, 80 μL of sample diluent and 20 μL of sample were added into the wells coated with monoclonal antibody to human Bcl-2, and after that the wells were washed twice with the wash buffer. Next, 50 μL of biotin-conjugate were added into the wells. After 2 h of incubation at room temperature on a microplate shaker, 100 μL of streptavidin-horseradish peroxidase were added. The sample was incubated again for 1 h at room temperature on a microplate shaker. The solution was withdrawn and the wells were washed with 3X wash buffer. Immediately, 100 μL of TMB substrate solution were added. Finally, 100 μL of stop solution were added into each well to stop the enzyme reaction. The absorbance was read using an ELISA reader at 450 and 620 nm wavelengths. Bcl-2 protein concentration was determined from the standard protein graphic using the optical densities of the samples[32].
# [8] = system: Bax; assay: Quantification of Bax (immunometric assay), MCF-7; assay type: cell-based, human; conditions: MCF-7 cells; compared to untreated cells
# Description: (§2) Bax protein concentration determination was carried out using the Human Bax Enzyme Immunometric Assay kit (Assay Designs, Ann Arbor, MI, USA). The lysate (sample) preparation was carried out according to the manual. Following centrifugation (16,000 g for 15 min), the cells were resuspended in Modified Cell lysis buffer 4 [0.5 μL/mL of Sigma Protease Inhibitor Cocktail and 1 mM phenylmethylsulfonyl fluoride (PMSF)]. Cell lysate (100 μL) (sample) was added into the wells coated with monoclonal antibody to human Bax-α in triplicate. The plate was tapped gently to mix the contents. The sample was incubated at room temperature on a plate shaker for 1 h. The wells were emptied and washed with 5X wash buffer. After the final wash, the plate was tapped gently on a lint free paper towel to remove any remaining wash buffer. The sample was incubated again for 1 h at room temperature on a plate shaker after the addition of 100 μL of specific antibody (biotinylated monoclonal antibody to Bax-α) into each well. The wells were washed again with 5X wash buffer and emptied. Next, 100 μL of blue conjugate (streptavidin conjugated to horseradish peroxidase) was added into each well. […] The optical densities were read at 450 and 570 nm using an ELISA reader. Bax protein concentration was determined from the standard protein graphic using the optical densities of the samples[32].
# [9] = system: Bax; assay: Quantification of Bax (immunometric assay), HL-60; assay type: cell-based, human; conditions: HL-60 cells; compared to untreated cells
# Description: as §2
# [10] = system: cytosolic cytochrome c; assay: Cytosolic cytochrome c estimation (ELISA), HL-60; assay type: cell-based, human; conditions: HL-60 cells; cytosolic fraction
# Description: Cells were collected by centrifugation at 600 g for 5 min at 4 °C. The cell pellets were washed once with ice-cold PBS and resuspended in cytosol extraction buffer (20 mM Hepes-KOH, pH 7.5, 10 mM KCl, 1.5 mM MgCl2, 1 mM sodium EDTA, 1 mM sodium EGTA, 1 mM dithiothreitol and 0.1 mM PMSF) containing 250 mM sucrose on ice for 10 min. The cells were homogenized with the grinder on ice. Further, the homogenates were centrifuged at 700 g for 10 min at 4 °C. The supernatants were centrifuged at 10,000 × g for 30 min at 4 °C. Supernatant was collected as cytosolic fraction.
# Cytosolic cytochrome c levels were determined using quantitative sandwich enzyme immunoassay using microplate reader. Sample or standard (100 μL) was added into each well and incubated for 2 h at room temperature. The wells were washed several times with wash buffer. The plate was inverted and cleaned with paper toweling. Cytochrome c conjugate (200 μL) was added into each well and incubated for 2 h at room temperature. Wells were washed several times with wash buffer. Substrate solution (200 μL) was added into each well and incubated for 30 min at room temperature. Finally, stop solution (50 μL) was added into wells. The optical density (absorbance) of each well was determined using microplate reader at a 450 nm wavelength.
# [11] = system: caspase-3; assay: Caspase-3 colorimetric assay, MCF-7; assay type: cell-based, human; conditions: MCF-7 cells
# Description: (§3) Caspases-3, -8 and -9 assays were measured according to manufacturer’s instructions using a caspase colorimetric protease kit (Abcam, Cambridge, MA, USA). Cells were treated with compounds for 48 h. The cells were lysed by the addition of 50 μL of chilled cell lysis buffer and incubated on ice for 10 min. The resulting cell lysate was centrifuged for 1 min at 10,000 g, and the supernatant was collected. The cell lysate containing […] of protein was incubated with […] of 4 mmol/L pNA-conjugated substrates (DEVD-pNA, IETD-pNA and LEHD-pNA; substrates for caspase-3, -8 and -9, respectively) at 37 °C for 3 h. The amount of pNA released was measured at 405 nm using an ELISA microplate reader (Bio rad). The caspases activity was expressed as fold difference, [33].
# [12] = system: caspase-8; assay: Caspase-8 colorimetric assay, HL-60; assay type: cell-based, human; conditions: HL-60 cells; data not showed
# Description: as §3
smiles,measurement,setting,value
"COc1cc(CO)ccc1OC1OC(COC(=O)c2ccc(F)cc2)C(O)C(O)C1O (stereo not shown) [Compound 9f, (6-(4-(hydroxymethyl)-2-methoxyphenoxy)-tetrahydro-3,4,5-trihydroxy-2H-pyran-2-yl)methyl 4-fluorobenzoate]",IC50,[1],10.8 ± 0.42 µM
same,IC50,[2],7.85 ± 0.57 µM
same,mitochondria membrane potential loss,[3]; 5 µM,55.32 ± 2.14%
same,mitochondria membrane potential loss,[3]; 10 µM,65.56 ± 2.56%
same,effect on cell cycle distribution,[4],cell cycle arrest at G0/G1 phase
same,apoptotic cell population,[5],dose-dependent increase in the early apoptotic to late apoptotic population
same,apoptotic cell population,[6],increase in the early apoptotic to late apoptotic cells in a dose-dependent fashion
same,effect on Bcl-2 levels,[7],dose dependent inhibition of Bcl-2
same,effect on Bax protein levels,[8],dose dependently increased
same,effect on Bax protein levels,[9],increase in Bax protein levels
same,effect on cytosolic cytochrome c levels,[10],dose dependently increased
same,effect on caspase-3 activity,[11],enhanced caspase-3 and -9 activities
same,effect on caspase-8 activity,[12],did not exhibit considerable effect
